In a melting point compilation (Tetko et al.; mined from patent text by program, amines drawn as free bases though some values may be those of a salt):

melting point [°C] | Structure (SMILES)
81 to 82 | CON(C)C(=O)Nc1ccc(OCCc2ccc(C(C)C)cc2)cc1
114 to 116 | CC(CCOc1ccccc1NS(C)(=O)=O)N1CCC(OC(c2ccccc2)c2ccccc2)CC1 (stereo not drawn)
140 to 142 | CN1CCC(N(C)S(=O)(=O)c2ccc(Nc3nc(Cl)cc(Nc4ccc(F)cc4)n3)cc2)CC1
110 to 115 | COC(=O)C(C)Oc1ccc(Oc2cnc3ccccc3n2)cc1 (stereo not drawn)
191 to 193 | O=C(O)Cc1c(-c2ccccc2)nn(-c2ccccc2Cl)c1-c1ccccc1
245 to 247 | COc1cc2ccc(C(=O)O)cc2cc1OC
119 to 120 | N#CCCC(CCC(=O)O)(c1ccccc1)c1ccccc1
52 to 53 | CC(C)c1nsc2c1C(=O)N(C(C)(C)C)C2=O
153 to 156 | COc1ccc(C2=NN(c3ccccc3)C(c3ccc(NC(=S)Nc4ccccc4)cc3)C2)cc1 (stereo not drawn)
288 to 291 | O=C(O)COc1ccc(OC2CCN(c3ccncc3)CC2)cc1
91 to 93 | CC(=O)N[C@@H](CO)C(=O)NCCO[N+](=O)[O-]
169 to 170 | CC(=O)C1CC2=C(CO1)C(=O)c1ccc(O)cc1C2=O (stereo not drawn)
296 to 298 | CC(=O)Nc1cc(I)c(-c2cc([N+](=O)[O-])c(NC(C)=O)cc2I)cc1[N+](=O)[O-]
36 to 38 | COc1cc(C=C(Br)Br)ccc1OC(C)C
147 to 150 | CSc1cc(C)nc(SC)c1NC(=O)CCCCSc1nc2ccccc2o1
150 to 160 | Cc1nc(-c2ccc(C#N)cc2)sc1C(=O)N1CCO[C@@](Cn2cncn2)(c2ccc(F)cc2F)[C@H]1C
98.5 to 101 | CN(C)CCCC1(c2ccc(OC3CCCCO3)cc2)Sc2ccccc2N(C)C1=O (stereo not drawn)
87.7 | COC(Cn1cncn1)(OC)c1ccc(Cl)cc1Cl
188 to 190 | O=C(O)c1cc(-n2c(-c3ccccc3)cc3c2CCCC3)c(C(F)(F)F)cc1O
112 to 113 | O=[N+]([O-])c1ccc(Cn2ccnn2)cc1
153 to 154 | CCOc1cc2c(C)c(CCOS(C)(=O)=O)c(=O)oc2cc1OC
206 to 207 | Clc1ccc(-c2nc(I)c[nH]2)cc1Cl
106 to 107 | OC(CCc1ccccc1)Cn1ccnc1 (stereo not drawn)
174 | CCc1ccc(CCC(=O)O)c(C(=O)O)c1

melting point [°C] | Structure (SMILES)
71 | O=C(O)CCCc1cccc(C(=O)c2ccccc2)c1
214 to 215 | Cc1ccc(Cc2cnc(NCCCCNc3ccc(Cl)cn3)[nH]c2=O)cn1
121 to 123 | Cc1c(C)c(C2CC(=O)C=C(O)C2)c(C)c2c1CC(C)(C)O2 (stereo not drawn)
180 to 182 | COC(=O)C1=C(C)NC(C)=C(C(=O)OCCBr)C1c1cccc(Cl)c1Cl (stereo not drawn)
164 | CN1C(=O)N(c2cc(Cl)cc(Cl)c2)C(=O)[C@]12CN(Cc1ccccc1)C[C@H]2c1ccc(C#N)cc1 (relative stereo)
186 | CC(=O)Nc1ccc(NCCO)c([N+](=O)[O-])c1
147 to 149 | Oc1ccccc1-c1nc(-c2ccccc2O)nc(-c2ccccc2O)n1
> 300 | O=C(Cn1c(=O)c(=O)[nH]c2cc([N+](=O)[O-])c(-n3cccc3)cc21)Nc1ccccc1
246 to 249 | COc1cc2c(Nc3ccc(Cl)cc3F)ncnc2cc1OCCN1CCS(=O)(=O)CC1
86 to 90 | CCCCc1oc2ccc(N)cc2c1C(=O)c1ccc(OCCCO)cc1
224 to 225 | C=CCOC1CC2C3CCC4=CC(=O)CCC4(C)C3(F)C(O)CC2(C)C1(O)C(=O)CCl (stereo not drawn)
113 to 114 | COc1ccc2cc([C@H](C)C(=O)OCC(=O)N(C)CC(=O)OCCO)ccc2c1
120 to 125 | Cc1onc(-c2ccccc2)c1-c1nc(-c2c(F)cccc2Cl)nn1C
194 to 195 | CON=C(C(=O)O)c1cccc(NC(=O)C(F)(F)F)n1
95 to 96 | Cc1ccc2c(OS(=O)(=O)C(F)(F)F)cc(=O)oc2c1
96 to 97.5 | COC(=O)C=CC=Cc1ccccc1CNC(=O)OC(C)(C)C
121 to 125 | CC(C)OCCOc1ccc(-c2nc(C(=O)Nc3nccs3)c(-c3ccc(Cl)cc3)[nH]2)cc1
68 to 76 | COC(=O)Cc1ccc(OCCNC(=O)C2Cc3ccccc3N2S(=O)(=O)c2ccc(-c3cc(C(F)(F)F)ccc3Cl)cc2)c(Cl)c1 (stereo not drawn)
114 to 115 | CC(C)(NS(=O)(=O)c1ccccc1)c1ccccc1
112 to 113 | CCCCS(=O)Cc1ccc(CCl)cc1 (stereo not drawn)
162 | CCOC(=O)C(=O)Nc1cccc(NC(=O)C(=O)OCC)c1Cl
132 to 134 | CCOC(=O)CCNC(=O)c1cn2nc(Cl)ccc2n1
281 | NN=C(N)Nc1c(Cl)cccc1Cl
133 to 134 | Cc1nccn1CCC(=O)c1nn2c3c(cccc13)CCC2

melting point [°C] | Structure (SMILES)
46 to 48 | CCOC(=O)CCc1cc(O)ccc1-c1ccc(-c2cccnc2)c(CO)c1
157 to 158 | O=C(O)c1cc(Cl)ccc1NC(=O)C(CS)Cc1ccccc1 (stereo not drawn)
144 to 148 | Cn1nc(-c2c(F)cccc2Cl)nc1-c1ccc([N+](=O)[O-])cc1Cl
142 to 143 | CCNC(=O)Nc1c(C(O)(C(F)(F)F)C(F)(F)F)ccc2c1CCC2
115 to 117 | CCOC(=O)NC1Cc2ccccc2C1Nc1ccccc1CO (stereo not drawn)
114 | CNC(=O)N=c1ccc(C)cn1-c1cccc(C(F)(F)F)c1
140 to 141 | COc1cc2c(cc1OCCN(C)C)N(C(=O)c1ccc(-c3ccc(-c4noc(C)n4)cc3C)cc1)CC2
246 to 248 | COc1cc(C(=O)NS(=O)(=O)c2ccccc2)ccc1Cn1nc(OC)c2ccc(NC(=O)OC3CCCC3)cc21
80.5 to 81.1 | Cn1nc(-c2ccc(F)cc2)c(-c2ccncc2)c1CCCc1ccc(N)cc1
72 to 75 | COc1ccc(S(=O)(=O)N(Cc2ccccc2)C(Cc2nnn(C)n2)C(=O)NO)cc1 (stereo not drawn)
64 to 66 | CCOC(=O)C(C)Oc1ncn(-c2ccc(Br)cc2)n1 (stereo not drawn)
167 to 168 | O=C(O)c1cccc(-c2ccc3c(c2)N(Cc2ccc(Cl)c(Cl)c2)CC3)c1
159 to 160 | NC(=O)c1c(Cl)cn2c1CN(S(=O)(=O)c1ccc(C(F)(F)F)cc1)CC2
195 to 196 | COC(=O)c1ccc(Oc2c(C)n(CC(=O)O)c3ccc(F)cc23)cc1
139 to 141 | CCc1csc(-c2ccc3c(c2)C=C(C(=O)Nc2ccc(CN(C)C4CCOCC4)cc2)CCN3C)c1
98 to 99 | O=C(NCCc1c[nH]c2ccccc12)C1CCCCC1
214 to 216 | Cc1cccc(-c2c(C3CCN(C)CC3)[nH]c(=O)c3ccccc23)c1
277 to 279 | CC(=O)Nc1[nH]c(-c2ccc(O)cc2)nc1C
118 to 120 | Cn1nnnc1SCCCC(=O)c1ccc2ccccc2c1
109 to 111 | O=C(c1cc(-c2ccccc2)no1)C1CCCCC1N1CCCC1 (stereo not drawn)
100 to 104 | CC(C(=O)O)N(C(=O)OC(C)(C)C)c1ccc([N+](=O)[O-])cc1 (stereo not drawn)
222 to 224 | COc1ccccc1C1(CC(=O)O)C(=O)Nc2cc(Cl)c(Cl)cc21 (stereo not drawn)
87 to 90 | COc1cc(C(=O)c2c(-c3ccc(OCCN4CCCC4)c(COCc4ccccc4)c3)sc3cc(O)ccc23)ccc1CN1CCOCC1
119 to 121 | O=C(CCCCc1ccccc1)Nc1ccc2c(c1O)C(=O)CC2

melting point [°C] | Structure (SMILES)
158 to 160 | OCc1ccc(-c2ccc(-c3ccsc3)s2)s1
210 to 215 | CC(C)COC(=O)Nc1nc(N2CC=CCC2)nc2nc(=O)on12
95.5 to 96.5 | ClC(=NNc1ccccc1)c1c(Cl)cccc1Cl
143 to 144 | COc1cc2cc(-c3ccccc3F)sc2c(Cl)c1Cl
101 to 103 | O=C1NC(C(=O)NCCO[N+](=O)[O-])C(c2cccs2)O1 (stereo not drawn)
110 | OC1CSC(=S)N1c1ccccn1 (stereo not drawn)
101 to 105 | CNC1CCN(C(=O)CC2=C(n3nc(-c4c(-c5ccccc5)nn5ccccc45)ccc3=O)CCCC2)CC1
119 to 120 | CSc1ncc(C(=O)N(C)Cc2cc(C(F)(F)F)cc(C(F)(F)F)c2)c(-c2ccccc2)n1
162 | O=Cc1cc2c3ccccc3ccc2c2sccc12
105 to 108 | N#CC1CC2CC2N1C(=O)C(N)C12CC3CC(CC(O)(C3)C1)C2 (stereo not drawn)
250 to 254 | CC(=O)NNc1ccnc2c(NC(=O)c3c(Cl)cccc3Cl)cc(F)cc12
238 | C#CCn1c(=O)c2c(nc(C#Cc3cccc(OC(C)=O)c3)n2C)n(C)c1=O
38 to 43 | CCc1nc(N)nc2c1nc(NC)n2C1CC(N=[N+]=[N-])C(CO)O1 (stereo not drawn)
188 | CC#CCOc1ccc(S(=O)(=O)C2(C(=O)O)CCN(Cc3ccc(C)cc3)CC2)cc1
95 to 97 | O=C(O)C1CSC(C2CCCCC2)=NN1C(=O)CCS (stereo not drawn)
75.5 to 76.5 | CCOc1ccc2c(c1)C(C)=CC(C)(C)N2C(=O)Cl
192 | CCCCNc1c([N+](=O)[O-])cc(C(=O)O)cc1S(N)(=O)=O
139 to 140 | Cc1c(-c2ccncc2)sc(-c2ccncc2)c1C=O
208 | COc1cc(C(=O)n2c3c(c4ccccc42)CC(C(=O)O)(C(=O)O)CC3)cc(OC)c1OC
32 to 33 | FC(F)(F)c1cccc(C(Cl)(Cl)Cl)c1Cl
244 to 245 | O=C(O)c1cn(C2CC2)c2c(C(F)(F)F)c(N3CCC(c4ccncc4)C3)c(F)cc2c1=O (stereo not drawn)
88.3 | O=C1N(c2cc(Cl)cc(Cl)c2)C(=O)[C@]2(Cc3ccc(Br)cc3)C[C@@H](O)CN12
150 to 151 | COc1ccc(Cn2c(Br)nc3c(-c4ccco4)ncnc32)cc1

Structure (SMILES) | melting point [°C]
CCCN(CCC)Cc1nnc(-c2ncn3c2CN(C)C(=O)c2c-3ccc(F)c2Cl)o1 | 128 to 130
COC12CC(c3nnc(-c4cncc(Br)c4)o3)CN(C)C1Cc1c[nH]c3cccc2c13 (stereo not drawn) | 155 to 157
CCCN(CCC)C1Cc2cccc3nc(SC)n(c23)C1 (stereo not drawn) | 49 to 52
